“And” between values parts separate entries of the source, which are not always exact repeats. Identical values can stand only once. Numbers after ± are expanded uncertainties.
Details: Closed cell (Static) method

c1ccc2ccccc2c1 [naphthalene]
Details | vapor or sublimation pressure
276.72 K, Crystal | 0.001118 ± 0.00012 kPa
276.73 K, Crystal | 0.001122 ± 0.00012 kPa
276.74 K, Crystal | 0.001118 ± 0.00012 kPa
280.12 K, Crystal | 0.001625 ± 0.00013 kPa
280.15 K, Crystal | 0.001634 ± 0.00013 kPa
280.17 K, Crystal | 0.001644 ± 0.00013 kPa
283.27 K, Crystal | 0.002321 ± 0.00015 kPa and 0.002329 ± 0.00015 kPa and 0.002333 ± 0.00015 kPa
286.33 K, Crystal | 0.003264 ± 0.00017 kPa and 0.003275 ± 0.00017 kPa
286.34 K, Crystal | 0.003276 ± 0.00017 kPa
289.39 K, Crystal | 0.004482 ± 0.00021 kPa and 0.004484 ± 0.00021 kPa and 0.004493 ± 0.00021 kPa
292 K, Crystal | 0.005885 ± 0.00026 kPa and 0.005899 ± 0.00026 kPa and 0.005902 ± 0.00026 kPa
292.04 K, Crystal | 0.005878 ± 0.00026 kPa
292.05 K, Crystal | 0.005881 ± 0.00026 kPa and 0.005889 ± 0.00026 kPa
293.36 K, Crystal | 0.006861 ± 0.00029 kPa
293.38 K, Crystal | 0.006881 ± 0.00029 kPa
293.4 K, Crystal | 0.006871 ± 0.00029 kPa
294.91 K, Crystal | 0.007907 ± 0.00033 kPa
294.94 K, Crystal | 0.007905 ± 0.00033 kPa
294.96 K, Crystal | 0.007922 ± 0.00033 kPa
296.91 K, Crystal | 0.009768 ± 0.0004 kPa and 0.009773 ± 0.0004 kPa
296.92 K, Crystal | 0.009786 ± 0.0004 kPa
297.67 K, Crystal | 0.01039 ± 0.00042 kPa and 0.0104 ± 0.00042 kPa
297.68 K, Crystal | 0.01041 ± 0.00042 kPa
300.93 K, Crystal | 0.01426 ± 0.00053 kPa
300.95 K, Crystal | 0.01427 ± 0.00053 kPa and 0.01428 ± 0.00053 kPa
302.6 K, Crystal | 0.01691 ± 0.00057 kPa and 0.01696 ± 0.00057 kPa
303.67 K, Crystal | 0.01833 ± 0.0006 kPa and 0.01835 ± 0.0006 kPa
306.52 K, Crystal | 0.02413 ± 0.00069 kPa
306.6 K, Crystal | 0.02433 ± 0.0007 kPa
306.65 K, Crystal | 0.02446 ± 0.0007 kPa
308.22 K, Crystal | 0.02835 ± 0.00076 kPa and 0.02834 ± 0.00076 kPa
312.83 K, Crystal | 0.04277 ± 0.001 kPa
312.84 K, Crystal | 0.04281 ± 0.001 kPa
312.85 K, Crystal | 0.04282 ± 0.001 kPa
313.85 K, Crystal | 0.04691 ± 0.0011 kPa
315.09 K, Crystal | 0.05173 ± 0.0012 kPa and 0.05174 ± 0.0012 kPa
317.19 K, Crystal | 0.06259 ± 0.0014 kPa and 0.06261 ± 0.0014 kPa and 0.06262 ± 0.0014 kPa
319.43 K, Crystal | 0.07588 ± 0.0016 kPa and 0.07592 ± 0.0016 kPa
324.1 K, Crystal | 0.1124 ± 0.0022 kPa
324.99 K, Crystal | 0.1206 ± 0.0024 kPa
325 K, Crystal | 0.1206 ± 0.0024 kPa
325.01 K, Crystal | 0.1206 ± 0.0024 kPa
326.36 K, Crystal | 0.1338 ± 0.0023 kPa
326.37 K, Crystal | 0.1338 ± 0.0023 kPa
328.22 K, Crystal | 0.1567 ± 0.0026 kPa
330.59 K, Crystal | 0.1886 ± 0.003 kPa
330.6 K, Crystal | 0.1887 ± 0.003 kPa
335.27 K, Crystal | 0.2723 ± 0.004 kPa
335.28 K, Crystal | 0.2726 ± 0.004 kPa
335.31 K, Crystal | 0.2732 ± 0.004 kPa
336.07 K, Crystal | 0.288 ± 0.0042 kPa and 0.2881 ± 0.0042 kPa
337.45 K, Crystal | 0.3184 ± 0.0046 kPa
337.46 K, Crystal | 0.3185 ± 0.0046 kPa
339.09 K, Crystal | 0.3626 ± 0.0051 kPa and 0.3628 ± 0.0051 kPa and 0.3624 ± 0.0051 kPa
341.45 K, Crystal | 0.4305 ± 0.0059 kPa
341.46 K, Crystal | 0.4306 ± 0.0059 kPa
346.83 K, Crystal | 0.6347 ± 0.0084 kPa
346.84 K, Crystal | 0.6347 ± 0.0084 kPa
348.58 K, Crystal | 0.7143 ± 0.0094 kPa and 0.7145 ± 0.0094 kPa and 0.7148 ± 0.0094 kPa
352.18 K, Crystal | 0.9195 ± 0.012 kPa and 0.9196 ± 0.012 kPa
355.35 K, Liquid | 1.098 ± 0.014 kPa
358.34 K, Liquid | 1.266 ± 0.016 kPa
358.36 K, Liquid | 1.267 ± 0.016 kPa
358.38 K, Liquid | 1.269 ± 0.016 kPa

[CH]1C=CC=C1.[CH]1C=CC=C1.[Fe] [ferrocene]
Crystal
Details | vapor or sublimation pressure
276.97 K | 9.4e-05 ± 0.00011 kPa and 9.7e-05 ± 0.00011 kPa
276.98 K | 0.000101 ± 0.00011 kPa
282.75 K | 0.000181 ± 0.00011 kPa and 0.000189 ± 0.00011 kPa
282.76 K | 0.000194 ± 0.00011 kPa
286.28 K | 0.000288 ± 0.00011 kPa
286.29 K | 0.000285 ± 0.00011 kPa
286.31 K | 0.000283 ± 0.00011 kPa
288.24 K | 0.000335 ± 0.00011 kPa and 0.000344 ± 0.00011 kPa
292.28 K | 0.000536 ± 0.00011 kPa
292.29 K | 0.000527 ± 0.00011 kPa and 0.000529 ± 0.00011 kPa
293.76 K | 0.000622 ± 0.00012 kPa and 0.000626 ± 0.00012 kPa and 0.000627 ± 0.00012 kPa
294.28 K | 0.000652 ± 0.00012 kPa
294.29 K | 0.000646 ± 0.00012 kPa
294.34 K | 0.00065 ± 0.00012 kPa
296.77 K | 0.000841 ± 0.00012 kPa
296.78 K | 0.000848 ± 0.00012 kPa and 0.000858 ± 0.00012 kPa
299.19 K | 0.001072 ± 0.00012 kPa and 0.001073 ± 0.00012 kPa and 0.001078 ± 0.00012 kPa
302.11 K | 0.001417 ± 0.00013 kPa
302.13 K | 0.001428 ± 0.00013 kPa and 0.001429 ± 0.00013 kPa
303.24 K | 0.00162 ± 0.00014 kPa
303.25 K | 0.001618 ± 0.00014 kPa
304.61 K | 0.001809 ± 0.00014 kPa and 0.001811 ± 0.00014 kPa and 0.001815 ± 0.00014 kPa
307.47 K | 0.002395 ± 0.00015 kPa and 0.002397 ± 0.00015 kPa and 0.002384 ± 0.00015 kPa
310.03 K | 0.003047 ± 0.00017 kPa and 0.003053 ± 0.00017 kPa
310.04 K | 0.003068 ± 0.00017 kPa
312.78 K | 0.003906 ± 0.0002 kPa and 0.00391 ± 0.0002 kPa and 0.003916 ± 0.0002 kPa
314.08 K | 0.00442 ± 0.00021 kPa and 0.004424 ± 0.00021 kPa
314.09 K | 0.004449 ± 0.00021 kPa
315.43 K | 0.004969 ± 0.00023 kPa and 0.004971 ± 0.00023 kPa
318.06 K | 0.006287 ± 0.00027 kPa and 0.006293 ± 0.00027 kPa and 0.006304 ± 0.00028 kPa
320.77 K | 0.007956 ± 0.00033 kPa
323.34 K | 0.009923 ± 0.0004 kPa
323.35 K | 0.009927 ± 0.0004 kPa and 0.009932 ± 0.0004 kPa
324.89 K | 0.01134 ± 0.00046 kPa and 0.01135 ± 0.00046 kPa
326.09 K | 0.01251 ± 0.0005 kPa and 0.01252 ± 0.0005 kPa
328.59 K | 0.01539 ± 0.00055 kPa
328.6 K | 0.0154 ± 0.00055 kPa and 0.01541 ± 0.00055 kPa
331.35 K | 0.01928 ± 0.00061 kPa
331.36 K | 0.01929 ± 0.00061 kPa and 0.0193 ± 0.00061 kPa
333.86 K | 0.02352 ± 0.00068 kPa
335.51 K | 0.02691 ± 0.00074 kPa and 0.02692 ± 0.00074 kPa
336.59 K | 0.02929 ± 0.00078 kPa
336.6 K | 0.02929 ± 0.00078 kPa
339.07 K | 0.03535 ± 0.00088 kPa
339.08 K | 0.03533 ± 0.00088 kPa and 0.03537 ± 0.00088 kPa
341.81 K | 0.04367 ± 0.001 kPa and 0.04368 ± 0.001 kPa and 0.04369 ± 0.001 kPa
344.2 K | 0.052 ± 0.0012 kPa
344.21 K | 0.05207 ± 0.0012 kPa and 0.0521 ± 0.0012 kPa
346.02 K | 0.0598 ± 0.0013 kPa and 0.05982 ± 0.0013 kPa and 0.05985 ± 0.0013 kPa
349.36 K | 0.07591 ± 0.0016 kPa
349.37 K | 0.07593 ± 0.0016 kPa and 0.07595 ± 0.0016 kPa
351.22 K | 0.08709 ± 0.0018 kPa and 0.08711 ± 0.0018 kPa and 0.08712 ± 0.0018 kPa
354.37 K | 0.1082 ± 0.0021 kPa
356.27 K | 0.1242 ± 0.0024 kPa
359.5 K | 0.1538 ± 0.0026 kPa
359.51 K | 0.1539 ± 0.0026 kPa
362.73 K | 0.1914 ± 0.003 kPa and 0.1916 ± 0.003 kPa
366.77 K | 0.2492 ± 0.0037 kPa and 0.2493 ± 0.0037 kPa and 0.2494 ± 0.0037 kPa
